{"source": "ChEMBL document CHEMBL1144438", "about": "“Dipeptidyl peptidase IV inhibitors derived from beta-aminoacylpiperidines bearing a fused thiazole, oxazole, isoxazole, or pyrazole” (Bioorg Med Chem Lett, 2005)", "key": {"Dipeptidyl peptidase 9": {"target": "Dipeptidyl peptidase 9 (Homo sapiens, UniProt Q86TI2)", "sequence (Q86TI2 whole entry)": "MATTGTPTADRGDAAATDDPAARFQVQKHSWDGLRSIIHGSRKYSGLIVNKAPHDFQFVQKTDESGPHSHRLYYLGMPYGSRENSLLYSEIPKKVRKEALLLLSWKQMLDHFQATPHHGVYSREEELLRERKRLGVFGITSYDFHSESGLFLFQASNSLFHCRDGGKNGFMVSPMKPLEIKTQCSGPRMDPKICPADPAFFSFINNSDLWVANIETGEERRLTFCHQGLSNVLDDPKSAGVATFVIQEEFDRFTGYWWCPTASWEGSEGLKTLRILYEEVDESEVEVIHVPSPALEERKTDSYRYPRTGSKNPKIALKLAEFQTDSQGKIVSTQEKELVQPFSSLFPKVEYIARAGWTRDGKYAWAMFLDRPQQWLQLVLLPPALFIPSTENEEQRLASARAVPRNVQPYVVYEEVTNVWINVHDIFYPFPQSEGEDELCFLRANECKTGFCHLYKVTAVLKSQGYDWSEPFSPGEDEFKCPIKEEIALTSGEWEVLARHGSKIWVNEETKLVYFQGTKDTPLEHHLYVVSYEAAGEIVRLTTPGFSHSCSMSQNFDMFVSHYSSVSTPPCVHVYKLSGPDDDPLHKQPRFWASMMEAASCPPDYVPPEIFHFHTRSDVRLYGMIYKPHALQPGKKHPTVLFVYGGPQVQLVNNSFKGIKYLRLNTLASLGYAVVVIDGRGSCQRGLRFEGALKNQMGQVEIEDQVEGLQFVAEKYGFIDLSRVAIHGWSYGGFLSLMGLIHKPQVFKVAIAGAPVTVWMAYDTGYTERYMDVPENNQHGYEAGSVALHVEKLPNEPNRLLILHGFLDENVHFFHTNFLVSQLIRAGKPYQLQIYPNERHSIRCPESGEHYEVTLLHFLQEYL", "test": "Inhibitory concentration against human dipeptidylpeptidase 9"}, "Dipeptidyl peptidase 8": {"target": "Dipeptidyl peptidase 8 (Homo sapiens, UniProt Q6V1X1)", "sequence (Q6V1X1 whole entry)": "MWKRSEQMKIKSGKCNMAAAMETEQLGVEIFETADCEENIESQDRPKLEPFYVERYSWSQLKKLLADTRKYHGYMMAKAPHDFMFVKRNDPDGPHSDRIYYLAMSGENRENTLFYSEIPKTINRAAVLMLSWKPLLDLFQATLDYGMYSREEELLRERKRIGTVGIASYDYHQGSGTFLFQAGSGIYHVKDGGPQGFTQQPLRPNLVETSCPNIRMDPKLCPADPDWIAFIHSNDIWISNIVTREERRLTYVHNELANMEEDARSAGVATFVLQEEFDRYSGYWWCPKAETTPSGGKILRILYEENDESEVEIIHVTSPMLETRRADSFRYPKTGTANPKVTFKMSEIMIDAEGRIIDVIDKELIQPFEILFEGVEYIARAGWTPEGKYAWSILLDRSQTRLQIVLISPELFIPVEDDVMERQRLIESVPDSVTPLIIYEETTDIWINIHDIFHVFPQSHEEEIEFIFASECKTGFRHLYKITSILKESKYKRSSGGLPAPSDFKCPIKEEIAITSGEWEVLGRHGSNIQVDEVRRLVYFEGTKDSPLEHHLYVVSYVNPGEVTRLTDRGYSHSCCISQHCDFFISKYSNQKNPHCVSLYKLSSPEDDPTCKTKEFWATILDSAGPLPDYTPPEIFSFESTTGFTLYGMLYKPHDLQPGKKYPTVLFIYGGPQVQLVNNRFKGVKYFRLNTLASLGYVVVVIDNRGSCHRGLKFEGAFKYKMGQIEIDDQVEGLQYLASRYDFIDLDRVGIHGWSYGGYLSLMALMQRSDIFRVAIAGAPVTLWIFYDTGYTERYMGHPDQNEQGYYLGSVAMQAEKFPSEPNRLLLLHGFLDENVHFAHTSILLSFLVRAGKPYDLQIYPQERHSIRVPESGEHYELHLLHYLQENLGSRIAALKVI", "test": "Inhibitory concentration against human dipeptidylpeptidase 8"}, "Dipeptidyl peptidase 2": {"target": "Dipeptidyl peptidase 2 (Homo sapiens, UniProt Q9UHL4)", "test": "Inhibitory concentration against human dipeptidylpeptidase VII (QPP)"}, "[1]": {"test": "Half-life of compound in rats dosed at 1 mg/kg i.v.", "assay_type": "ADME, organism-based", "parameters": "dose 1 mg/kg, route intravenous", "conditions": "rat, in vivo, iv"}, "[2]": {"test": "Plasma clearance of compound in rats dosed at 1 mg/kg i.v.", "assay_type": "ADME, organism-based", "parameters": "dose 1 mg/kg, route intravenous", "conditions": "rat, iv"}, "[3]": {"test": "Oral bioavailability of compound in rats dosed at 2 mg/kg p.o.", "assay_type": "ADME, organism-based", "conditions": "rat, in vivo"}}, "data": [{"smiles": "N[C@@H](CC(=O)N1CCc2noc(C(F)(F)F)c2C1)Cc1cc(F)ccc1F", "values": [{"measurement": "IC50", "setting": "Dipeptidyl peptidase 9", "value": "> 100", "unit": "µM"}, {"measurement": "IC50", "setting": "Dipeptidyl peptidase 8", "value": "> 100", "unit": "µM"}]}, {"smiles": "Cn1nc(C(F)(F)F)c2c1CCN(C(=O)C[C@H](N)Cc1cc(F)ccc1F)C2", "values": [{"measurement": "IC50", "setting": "Dipeptidyl peptidase 9", "value": "> 100", "unit": "µM"}]}, {"smiles": "N[C@@H](CC(=O)N1CCc2c(noc2C(F)(F)F)C1)Cc1cc(F)ccc1F", "values": [{"measurement": "IC50", "setting": "Dipeptidyl peptidase 2", "value": "> 100", "unit": "µM"}]}, {"smiles": "Cn1nc2c(c1-c1ccc(F)cc1)CN(C(=O)C[C@H](N)Cc1cc(F)ccc1F)CC2", "values": [{"measurement": "IC50", "setting": "Dipeptidyl peptidase 9", "value": "> 100", "unit": "µM"}]}, {"smiles": "Cn1nc(-c2ccc(F)cc2)c2c1CCN(C(=O)C[C@H](N)Cc1cc(F)ccc1F)C2", "values": [{"measurement": "IC50", "setting": "Dipeptidyl peptidase 9", "value": "> 100", "unit": "µM"}]}, {"smiles": "Cn1nc2c(c1C(F)(F)C(F)(F)F)CN(C(=O)C[C@H](N)Cc1cc(F)ccc1F)CC2", "values": [{"measurement": "IC50", "setting": "Dipeptidyl peptidase 9", "value": "> 100", "unit": "µM"}, {"measurement": "IC50", "setting": "Dipeptidyl peptidase 8", "value": "> 100", "unit": "µM"}]}, {"smiles": "N[C@@H](CC(=O)N1CCc2nn(CC(F)(F)F)c(C(F)(F)F)c2C1)Cc1cc(F)ccc1F", "values": [{"measurement": "IC50", "setting": "Dipeptidyl peptidase 9", "value": "> 100", "unit": "µM"}, {"measurement": "IC50", "setting": "Dipeptidyl peptidase 8", "value": "> 100", "unit": "µM"}]}, {"smiles": "N[C@@H](CC(=O)N1CCc2n[nH]c(C(F)(F)C(F)(F)F)c2C1)Cc1cc(F)ccc1F", "note": "(stereo in doubt; form 2)", "values": [{"measurement": "IC50", "setting": "Dipeptidyl peptidase 9", "value": "> 100", "unit": "µM"}]}, {"smiles": "N[C@@H](CC(=O)N1CCc2c(c(C(F)(F)F)nn2CC(F)(F)F)C1)Cc1cc(F)ccc1F", "values": [{"measurement": "IC50", "setting": "Dipeptidyl peptidase 9", "value": "> 100", "unit": "µM"}]}, {"smiles": "N[C@@H](CC(=O)N1CCc2oc(C3CC3)nc2C1)Cc1cc(F)ccc1F", "values": [{"measurement": "IC50", "setting": "Dipeptidyl peptidase 9", "value": "> 100", "unit": "µM"}, {"measurement": "IC50", "setting": "Dipeptidyl peptidase 2", "value": "> 100", "unit": "µM"}]}, {"smiles": "N[C@@H](CC(=O)N1CCc2n[nH]c(C(F)(F)C(F)(F)F)c2C1)Cc1cc(F)ccc1F", "note": "(stereo in doubt; form 1)", "values": [{"measurement": "IC50", "setting": "Dipeptidyl peptidase 9", "value": "> 100", "unit": "µM"}]}, {"smiles": "Cn1nc2c(c1C(F)(F)F)CN(C(=O)C[C@H](N)Cc1cc(F)ccc1F)CC2", "values": [{"measurement": "IC50", "setting": "Dipeptidyl peptidase 9", "value": "> 100", "unit": "µM"}, {"measurement": "IC50", "setting": "Dipeptidyl peptidase 8", "value": "> 100", "unit": "µM"}]}, {"smiles": "N[C@@H](CC(=O)N1CCCc2n[nH]c(C(F)(F)F)c21)Cc1cc(F)ccc1F", "values": [{"measurement": "IC50", "setting": "Dipeptidyl peptidase 9", "value": "> 100", "unit": "µM"}, {"measurement": "IC50", "setting": "Dipeptidyl peptidase 8", "value": "> 100", "unit": "µM"}]}, {"smiles": "N[C@@H](CC(=O)N1CCc2sc(-c3ccc(F)cc3)nc2C1)Cc1cc(F)ccc1F", "values": [{"measurement": "half-life", "setting": "[1]", "value": 3.3, "unit": "h"}, {"measurement": "clearance", "setting": "[2]", "value": 91, "unit": "mL/min/kg"}, {"measurement": "bioavailability", "setting": "[3]", "value": 55, "unit": "%"}]}, {"smiles": "CS(=O)(=O)c1ccc(-c2nc3c(s2)CCN(C(=O)C[C@H](N)Cc2cc(F)ccc2F)C3)cc1", "values": [{"measurement": "half-life", "setting": "[1]", "value": 1.5, "unit": "h"}, {"measurement": "clearance", "setting": "[2]", "value": 60, "unit": "mL/min/kg"}, {"measurement": "bioavailability", "setting": "[3]", "value": 20, "unit": "%"}]}, {"smiles": "N[C@@H](CC(=O)N1CCc2sc(C(F)(F)F)nc2C1)Cc1cc(F)ccc1F", "values": [{"measurement": "IC50", "setting": "Dipeptidyl peptidase 9", "value": "> 100", "unit": "µM"}, {"measurement": "half-life", "setting": "[1]", "value": 2, "unit": "h"}, {"measurement": "clearance", "setting": "[2]", "value": 250, "unit": "mL/min/kg"}, {"measurement": "bioavailability", "setting": "[3]", "value": 16, "unit": "%"}]}, {"smiles": "Cn1nc2c(c1C(F)(F)F)CCN(C(=O)C[C@H](N)Cc1cc(F)ccc1F)C2", "values": [{"measurement": "IC50", "setting": "Dipeptidyl peptidase 9", "value": "> 100", "unit": "µM"}]}, {"smiles": "Cn1nc(C(F)(F)C(F)(F)F)c2c1CCN(C(=O)C[C@H](N)Cc1cc(F)ccc1F)C2", "values": [{"measurement": "IC50", "setting": "Dipeptidyl peptidase 9", "value": "> 100", "unit": "µM"}]}]}
